According to patent US12269797B2, “Bifunctional linker for bisconjugation, method of synthesis, and method of use” (priority 2020, dated 2025):

Experiment: Solubility of the bifunctional linker in solvents
Assay type: physicochemical

- solubility (in DMSO or methanol): soluble
- solubility (in hexanes or water): limited solubility
Compound: C#CCOC(=O)c1ccc(C=O)c(C=O)c1 [Ib, Prop-2-yn-1-yl 3,4-diformylbenzoate]
